The values that follow come from PubChem BioAssay (NCI).

Structures are written as SMILES.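 Following 48 hours of exposure in 96-well plates, responses at five concentrations were used to interpolate endpoints linearly. GI50 marks 50% less growth. TGI is the concentration that stops growth completely.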

Assay in all cases: inhibition of tumour cell growth, NCI panel, 48 h
The subject of assay [1] is SN12C renal.
Assay [2] has as its system SF-539 CNS.
Assay [3] deals with COLO 205 colon.
Assay [4] has as its system HOP-92 NSCLC.
In assay [5] the test system is SK-MEL-5 melanoma.
Assay [6] relates to A549 NSCLC.
The test system of assay [7] is A498 renal.
For assay [8], the system named is HCT-15 colon.
The test system of assay [9] is NCI/ADR-RES ovarian.
The subject of assay [10] is DU-145 prostate.

For `O=C(Nc1ccc(F)cc1F)c1cc(Cl)ccc1O`, the GI50 in [1] was 1290 nM; in assay [2], 1010 nM; in assay [3], 7790 nM; in [4], 232 nM; in assay [5], 608 nM; in assay [6], 1290 nM. Besides, the GI50 in assay [7] is 257 nM; in [8], 1540 nM; in assay [9] it was 2520 nM; in [10], 3000 nM. Also, the TGI came out at 8100 nM in [1]; 9900 nM in assay [2]; 22500 nM in assay [3]; 942 nM in assay [4]; 2030 nM in [5]; 41000 nM in [6]. The TGI came out at 902 nM in assay [7], 18000 nM in assay [8], 13300 nM in assay [9] and 69600 nM in assay [10].
For the compound `C1=C/COCc2cc(ccc2OCCN2CCCC2)Nc2nccc(n2)-c2ccc(o2)COC/1`, the GI50 was 990 nM in assay [1]; 1720 nM in assay [2]; 1290 nM in assay [3]; 2210 nM in assay [4]; 1790 nM in [5]; 2230 nM in assay [6]. Further, the GI50 in [7] was 1520 nM; in assay [8], 1110 nM; in assay [9], 2900 nM; in assay [10], 1570 nM. The TGI in assay [1] worked out at 5000 nM; in assay [2] it was 3330 nM; in assay [3] it was 2750 nM; in assay [4] it was 9470 nM; in [5], 4070 nM; in [6], 12000 nM. For the same compound, the TGI in [7] stood at 3570 nM; in assay [8], 9110 nM; in assay [9] it was 8620 nM; in assay [10], 13800 nM.
